The text below walks through data of patent US4022832A, “2-Aminoacetamido-α-phenylbenzylideneaminoalkanol derivatives and process for the preparation thereof” (Sankyo Company Limited, priority 1975, dated 1977).

Type in all cases: in vivo
In test [1] the test system is mice. As to the kind of experiment: Potentiation of anesthesia (thiopental). Particulars: Mus musculus, po, P.O., 1 hour before 30mg/kg thiopental i.v., dose prolonging loss of righting reflex twice that of thiopental only, Litchfield and Wilcoxon. As to the method:
(3) Potentiation of anesthesia
One hour after oral administration of the test compound, 30mg/kg of thiopental is intravenously injected, and the dose is determined which prolongs the duration of loss of the righting reflex twice that of the group administered only with thiopental.
(§1) (4) Calculation of ED50 values
(§2) The values are calculated according to the method of Litchfield and Wilcoxon [J. Pharmcol. Exp. Therap., 96, 99 (1949)].

The test system of test [2] is mice. The test is described as follows: Anti-bemegride convulsant effect. Conditions: Mus musculus, po, P.O., 1 hour before 30mg/kg bemegride s.c., observed for 30 minutes, Litchfield and Wilcoxon. As to the method:
(1) Anti-bemegride convulsant effect
One hour after oral administration of the test compound, 30mg/kg of bemegride is subcutaneously injected and the anti-convulsant activity of the compound is observed for 30 minutes.
as §1, §2

The test system of test [3] is mice. The test is described as follows: Anti-electroshock convulsant effect. Conditions: Mus musculus, po, P.O., 1 hour before electroshock (1000V, 12.5mA, 0.2sec.) through both corneas, Litchfield and Wilcoxon. As to the method: (2) Anti-electroshock convulsant effect
One hour after oral administration of the test compound, an electroshock (1000V, 12.5mA, 0.2sec.) is applied through both corneas and anti-convulsant activity of the compound is observed.
as §1, §2

Regarding `NCC(=O)Nc1ccc(Br)cc1C(=NCCO)c1ccccc1F` [2-{[2-Aminoacetamido-5-bromo-α -(2-fluorophenyl)benzylidene]amino}ethanol], the ED50 (as a rule, the dose at which the effect has come halfway, by size or by number of responders) in test [1] turned out to be 2.9 mg/kg; in test [2], 0.31 mg/kg; in test [3], 8 mg/kg.
Regarding `CNC1=Nc2ccc(Cl)cc2C(c2ccccc2)=[N+]([O-])C1` [Chlordiazepoxide], the results for the median effective dose (ED50) in test [1], in test [2] and in test [3] were 12 mg/kg, 2.7 mg/kg and 27 mg/kg, respectively.
